Measured values reported in paper PMC6362118, “Pharmacophore-guided discovery of CDC25 inhibitors causing cell cycle arrest and tumor regression” (Scientific Reports, 2019).

Tests used:
[1] = test system: U2OS Tet-OFF cells expressing HA-CDC25A; assay: Cell viability of U2OS Tet-OFF cells overexpressing HA-CDC25A; assay type: cell-based; conditions: grown in the absence of tetracycline (HA-CDC25A induced)
Procedure: 65 Enzymatic assays - CDC25A, CDC25B and CDC25C were appropriately diluted in 10
66 mM Tris-HCl pH 8.0, 50 mM NaCl and assayed in 20 mM Tris-HCl pH 8.0, 75 mM
67 NaCl, 0.5 mM EGTA, 1 mM DTT, 0.1 mg/ml BSA and defined concentrations of
68 compounds. Reactions were started by addition of the substrate OMFP (0.1 mM). Assays
69 were carried out at room temperature in duplicate or triplicate using transparent-bottom,
(§1) 70 V-shaped 96 well plates and read at defined intervals on a Molecular Devices
71 SpectraMax microplate reader (ex: 490 nm / em: 525 nm). IC50 and kinetic parameters
72 calculated from Lineweaver-Burk double-reciprocal plots of the data were obtained using
73 GraphPad Prism software.
75 Cell culture - Wild-type HeLa and Kyoto HeLa cells stably expressing mCherry-H2B
76 were maintained in DMEM+L-Glutamine (Gibco, Life Technologies, USA)
77 supplemented with 5% fetal calf serum (FCS) (Gibco) and penicillin-streptomycin (100
78 U/ml - 100 µg/ml) (Gibco). A549 and Colo741 were grown and maintained like HeLa
79 cells but with 10% FCS. HCT116 were maintained in McCoy’s medium supplemented
80 with 10% FCS and penicillin-streptomycin. U2OS-Tet-OFF cells expressing HA-CDC25
81 were grown and maintained in DMEM+L-Glutamine, 10% Tet-free FCS and penicillin- […]
(§2) 88 assessed as described 4. Data were plotted with Prism 7® and analyzed by non-linear […]

[2] = molecular target: T1, CDC25C (Homo sapiens, UniProt P30307); assay: Enzymatic assay (OMFP substrate) on recombinant CDC25C; assay type: biochemical; conditions: mixed-model inhibition equation
T1 construct: GST (pGEX vector) (N); made in house; host or cells: E. coli BL21
Description: (§3) 34 SUPPLEMENTARY MATERIALS AND METHODS
(§4) 36 Antibodies and chemicals - The following antibodies were used for Western blot:
(§5) 37 Rabbit monoclonal antibodies to CDK1-pThr14 (#2543), CDK1-pTyr15 (#9111), Histone
(§6) 39 Technology (Beverly, MA, USA). Mouse monoclonal antibodies to CDC25A (F-6, sc-
(§7) 41 from Santa Cruz Biotechnology (Santa Cruz, CA, USA). The mouse monoclonal
(§8) 42 antibody MPM2 (05-368) was from Upstate (Lake Placid, NY, USA). The mouse
(§9) 43 monoclonal antibody to the HA tag (HA.11, MMS-101P) was from BioLegend (S. Diego,
(§10) 44 CA, USA). The rabbit polyclonal antibody to PARP-1 (#227244) was obtained from
(§11) 45 Abcam. HRP-conjugated anti-mouse and anti-rabbit secondary antibodies were obtained
(§12) 46 from GE-Healthcare (Otelfingen, Switzerland). HRP-conjugated IgG-k-BP was
(§13) 47 purchased from Santa Cruz Biotechnology (Santa Cruz, CA, USA).
(§14) 48 The following antibodies were used for immunofluorescence on a Zeiss LSM 710
(§15) 49 confocal microscope: mouse monoclonal to beta-catenin (Cl. 14, BD transduction Lab.),
(§16) 50 rabbit polyclonal to lysozyme (A0099, Dako). Secondary antibodies were: Alexa 488 […]
as §1
(§17) 71 SpectraMax microplate reader (ex: 490 nm / em: 525 nm). […]
(§18) 72 calculated from Lineweaver-Burk double-reciprocal plots of the data were obtained using […]
as §2

[3] = molecular target: T2, CDC25B (Homo sapiens, UniProt P30305); assay: Enzymatic assay (OMFP substrate) on recombinant CDC25B; assay type: biochemical; conditions: mixed-model inhibition equation
T2 construct: GST (pGEX vector) (N); made in house; host or cells: E. coli BL21
Description: as §3, §4, §5, §6, §7, §8, §9, §10, §11, §12, §13, §14, §15, §16, §1, §17, §18, §2

T1 sequence (P30307 whole entry): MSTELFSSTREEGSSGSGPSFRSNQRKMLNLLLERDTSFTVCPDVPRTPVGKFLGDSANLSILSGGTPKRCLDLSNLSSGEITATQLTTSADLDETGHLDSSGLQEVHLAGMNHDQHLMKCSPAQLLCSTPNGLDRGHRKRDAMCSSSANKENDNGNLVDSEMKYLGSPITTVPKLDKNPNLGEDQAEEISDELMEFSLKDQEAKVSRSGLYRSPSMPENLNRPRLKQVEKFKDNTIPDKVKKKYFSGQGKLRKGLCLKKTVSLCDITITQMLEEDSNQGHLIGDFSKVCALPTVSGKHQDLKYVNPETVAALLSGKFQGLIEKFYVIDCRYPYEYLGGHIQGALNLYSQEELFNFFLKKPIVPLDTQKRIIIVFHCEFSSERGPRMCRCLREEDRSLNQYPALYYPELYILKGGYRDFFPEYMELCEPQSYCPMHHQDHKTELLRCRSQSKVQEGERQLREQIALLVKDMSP
T2 sequence (P30305 whole entry): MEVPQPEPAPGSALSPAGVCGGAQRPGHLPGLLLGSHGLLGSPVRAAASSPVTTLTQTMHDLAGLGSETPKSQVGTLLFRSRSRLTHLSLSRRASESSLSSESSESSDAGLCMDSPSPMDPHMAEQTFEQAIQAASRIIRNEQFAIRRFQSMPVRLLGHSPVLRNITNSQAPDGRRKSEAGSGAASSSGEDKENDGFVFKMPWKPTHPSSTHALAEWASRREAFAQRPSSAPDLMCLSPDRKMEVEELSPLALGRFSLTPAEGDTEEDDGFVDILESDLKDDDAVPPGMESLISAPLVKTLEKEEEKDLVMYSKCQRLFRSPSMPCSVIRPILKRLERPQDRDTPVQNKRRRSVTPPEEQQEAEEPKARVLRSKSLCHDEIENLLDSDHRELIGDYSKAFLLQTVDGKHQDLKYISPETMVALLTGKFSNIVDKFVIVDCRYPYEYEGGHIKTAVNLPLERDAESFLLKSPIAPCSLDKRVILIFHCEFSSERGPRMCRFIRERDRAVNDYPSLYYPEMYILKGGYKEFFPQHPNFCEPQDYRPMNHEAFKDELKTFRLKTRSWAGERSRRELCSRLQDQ

SMILES	sensitivity of CDC25A overexpressing cells (viability) [1]	Ki [2] [nM]	Ki [3] [nM]
O=C1C(c2ccc(O)cc2O)=CC(=O)c2c(O)cccc21 [UPD-176, 5-hydroxy-2-(2,4-dihydroxyphenyl)naphthalene-1,4-dione]	remained sensitive	–	–
COc1cccc(SC2=CC(=O)c3cccc(O)c3C2=O)c1 [UPD-795, 2-(3-methoxyphenylthio)-8-hydroxynaphthalene-1,4-dione]	–	850 ± 300	440 ± 100
